# According to patent US8436180B2, “Substituted-4-aryl-1,4-dihydro-1,6-naphthyridinamides and use thereof” (Bayer Intellectual Property GmbH, priority 2007, dated 2013):
# Legend:
# [1] = molecular target: T1, human mineralocorticoid receptor (MR) (Homo sapiens, UniProt P08235); test: Cellular in vitro assay to determine the inhibitory MR activity (GAL4-MR chimera luciferase reporter in CHO K1 cells); assay type: cell-based; settings: antagonism of aldosterone-stimulated luciferase activity
# T1 construct: expressed in transfected cells; host or cells: CHO K1 (Chinese hamster ovary), stably transfected
# T1 sequence (P08235 734-984 limits assumed): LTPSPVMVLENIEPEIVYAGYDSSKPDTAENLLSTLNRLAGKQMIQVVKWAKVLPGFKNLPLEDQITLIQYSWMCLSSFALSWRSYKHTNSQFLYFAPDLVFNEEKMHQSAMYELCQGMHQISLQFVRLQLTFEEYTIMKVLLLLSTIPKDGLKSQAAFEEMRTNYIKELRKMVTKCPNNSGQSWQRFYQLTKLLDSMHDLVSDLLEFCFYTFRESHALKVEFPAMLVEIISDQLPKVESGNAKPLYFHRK
# Excerpt: 1. Cellular In Vitro Assay to Determine the Inhibitory MR Activity and MR Selectivity Compared with Other Steroid Hormone Receptors
# Antagonists of the human mineralocorticoid receptor (MR) are identified, and the activity of the compounds described herein is quantified with the aid of a recombinant cell line. The cell is originally derived from a hamster ovary epithelial cell (Chinese Hamster Ovary, CHO K1, ATCC: American Type Culture Collection, VA 20108, USA).
# An established chimera system in which the ligand-binding domains of human steroid hormone receptors are fused to the DNA-binding domain of the yeast transcription factor GAL4 is used in this CHO K1 cell line. The GAL4-steroid hormone receptor chimeras produced in this way are cotransfected and stably expressed with a reporter construct in the CHO cells.
# To generate the GAL4-steroid hormone receptor chimeras, the GAL4 DNA binding domain (amino acids 1-147) from the vector pFC2-dbd (from Stratagene) is cloned with the PCR-amplified ligand-binding domains of the mineralocorticoid receptor (MR, amino acids 734-985), of the glucocorticoid receptor (GR, amino acids 443-777), of the progesterone receptor (PR, amino acids 680-933) and of the androgen receptor (AR, amino acids 667-919) into the vector pIRES2 (from Clontech). […]
# The MR, GR, PR and AR cells are plated out in medium (Optimem, 2.5% FCS, 2 mM glutamine, 10 mM HEPES) in 96- (or 384- or 1536-) well microtiter plates on the day before the assay and are kept in a cell incubator (96% humidity, 5% v/v CO2, 37° C.). […] After a further incubation time of 5 to 6 hours, the luciferase activity is measured with the aid of a video camera. The measured relative light units as a function of the substance concentration result in a sigmoidal stimulation curve. The IC50 values are calculated with the aid of the GraphPad PRISM computer program (Version 3.02).
# [2] = test system: aldosterone-induced sodium retention; test: In vivo assay for detecting anti-mineralocorticoid activity on anesthetized dogs; parameters: species or system dog; settings: anesthetized dogs under continuous aldosterone infusion (0.6 μg/kg/h); positive control
IC50 [1],SMILES,sodium/potassium ratio in the urine [2]
16 nM,CCOc1ncc(C)c2c1[C@H](c1ccc(C#N)cc1OC)C(C(N)=O)=C(C)N2 [5 [(−)-enantiomer]],
35 nM,"CCOc1nccc2c1C(c1ccc(C#N)cc1OC)C(C(N)=O)=C(C)N2 (stereo not shown) [Example 1, 4-(4-Cyano-2-methoxyphenyl)-5-ethoxy-2-methyl-1,4-dihydro-1,6-naphthyridine-3-carboxamide]",
,CC(=O)S[C@@H]1CC2=CC(=O)CC[C@]2(C)[C@H]2CC[C@@]3(C)[C@@H](CC[C@@]34CCC(=O)O4)[C@H]12 [Spironolactone],increases the sodium/potassium ratio in the urine dose-dependently

SMILES,IC50 [1],sodium/potassium ratio in the urine [2]
"CCOc1ncc(C)c2c1C(c1ccc(C#N)cc1OC)C(C(N)=O)=C(C)N2 (racemic) [Example 4, 4-(4-Cyano-2-methoxyphenyl)-5-ethoxy-2,8-dimethyl-1,4-dihydro-1,6-naphthyridine-3-carboxamide]",23 nM,
